Patent US5229373A, “Use of exogenous gangliosides as a protective factor against toxicity by antitumor drug vincristine” (Fidia S.p.A., priority 1986, dated 1993)
Like-named read-outs stand apart in the source and are kept apart here.

Experiments:
[1] = system: mouse; experiment: Effect of gangliosides on acute Vincristine toxicity (acute lethality, single i.v. dose); assay type: in vivo; conditions: Vincristine 3.0 mg/kg e.v. alone
Experimental: The mice were subdivided into groups of not more than 8 in standard cages. Food and water were provided ad lib. The animals were housed in rooms under strictly controlled conditions.
1 mg of Vincristine was diluted to obtain the concentration necessary to inject 0.1 ml/10 g. body weight.
A solution of gangliosides was prepared by addition of sterile distilled water in a quantity sufficient to obtain a final concentration of 200 mg/kg in a volume of 0.2 ml. This dose was administrated to mice weighing about 20g.

[2] = Effect of ganglioside treatment on chronic Vincristine toxicity (lethality after sub-chronic pre-treatment or post-treatment); assay type: in vivo, mouse; conditions: mouse, in vivo, iv, Table 4, read-out: Mortality rate, %
Experimental: (§1) Male mice CD-1 (ICR) BR (Charles River, Italy) weighing 25-30 g were used for the whole experiment. The animals were housed in groups of 10 per cage and fed with standard laboratory chow and tap water ad libitum. The animals were housed at constant room temperature (21°±1° C.) and relative humidity (60%) with controlled cycles of light/dark (light from 8.00 a.m. to 8.00 p.m.).
(§2) Vincristine sulphate (Lilly) was dissolved in saline and injected i.v. in a dose volume of 10 ml/kg, whereas the gangliosides were solubilized in a phosphate buffer (0.01M; pH 7.5) containing 0.8% of NaCl and administered i.m. at a dose volume of 5 ml/kg.
(§3) The ganglioside mixture (or vehicle) was administered i.m. daily for 5 consecutive days at different doses (50, 100 and 200 mg/kg) and Vincristine was injected i.v. 5 hours after the last treatment with gangliosides (or vehicle) in doses of 2.4 and 2.6 mg/kg.
(§4) The ganglioside mixture (or vehicle) was administered i.m. in doses of 200 mg/kg 5 hours before i.v. treatment with Vincristine for 5 consecutive days
(§5) The doses of Vincristine were of 2.2, 2.4 and 2.6 mg/kg.
(§6) The mortality rate was estimated by the number of animals that died within the first 14 days of Vincristine treatment.
(§7) The statistical significance between mortality rates was assessed by means of Fisher's exact probability test.
(§8) The results of the tests are reported in Tables 3 and 4 and graphed in FIG. 1. On the basis of the mortality rate curve after administration of Vincristine, doses between 2 and 3 mg/kg were chosen for the investigation with gangliosides. The first experiment compared the effects of ganglioside treatment before and after Vincristine injection.
(§9) In the case of post-treatment, a single administration of gangliosides was given in order to exclude the possibility that the greater efficacy of pre-treatment with gangliosides in reducing Vincristine toxicity, might only be due to the last ganglioside injection.

[3] = system: Male mice CD-1 (ICR) BR; experiment: as above; assay type: in vivo, mouse; conditions: for Mortality rate: Table 3; for Mortality rate, No.: Table 4
Experimental: as §1, §2, §3, §4, §5, §6, §7, §8, §9

[4] = system: sarcoma S180; experiment: Antitumoral effect of Vincristine with and without CRONASSIAL, sarcoma S180; assay type: in vivo, mouse; conditions: S180, host SN; VCR 0,5 mg/kg i.p. days 1-6
Experimental: Male Swiss Schneider mice weighing 27 g. were used for experiments on sarcoma S180.
This tumor has been transplanted into the same strain of mouse in this laboratory for over 10 years. The transplant was carried out by s.c.inoculation of 0.1 ml of a tumoral homogenate obtained by finely mincing viable tumoral tissue, passed repeatedly through a 26 gauge needle into a sterile Petri dish. 0.1 ml of Penicillin (20,000 u/ml) and streptomycin (20,000 u/ml) were added to the solution. 5 mg of Neomycin were also added.
(§10) A standard vial containing 1 mg of Vincristine was used. It was prepared with a suitable volume of diluting solution to give the final concentration required for injection into 0.1 ml/10 g. of body weight.
(§11) A solution of this substance, which is a mixture of four gangliosides, was prepared by adding a volume of sterile distilled water suffi- cient to give a concentration of 200 mg/kg in a volume of 0.2 ml. This dose is administered to mice weighing approximately 20 g.

[5] = system: melanoma B16; experiment: Antitumoral effect of Vincristine with and without CRONASSIAL, melanoma B16; assay type: in vivo, mouse; conditions: B16, host C57B1; VCR 0,5 mg/kg i.p. days 1-4, 7-11
Experimental: Female C57 B1 mice weighing 20 g. were used for experiments on melanoma B16.
This tumor was prepared by inoculation in the same way as that used for sarcoma S180.
as §10, §11

[6] = system: leukemia L1210; experiment: Antitumoral effect of Vincristine with and without CRONASSIAL, leukemia L1210; assay type: in vivo, mouse
Experimental: Male BDF1 mice weighing 30 g. were used for experiments on leukemia L1210.
Spleens were removed from the animals 7 days after inoculation of L1210 cells and were then finely minced with isotonic saline 1:100. 0.1 ml of this spleen and leukemia L1210 cell suspension was then injected s.c. into the flank of each BDF1 mouse.
as §10, §11

[7] = system: VCR-induced neuropathy; conditions: electrophysiology, studies in man; cited from earlier work
[8] = system: 3T3, neuroblastoma, glioma; conditions: exogenous addition; cited from earlier work
[9] = subchronic vehicle + VCR 2.4 mg/kg i.v.
[10] = subchronic vehicle + VCR 2.6 mg/kg i.v.

| Molecule | No. Survivors at 30 days [1] | mortality at 336 h [2, 9] [%] | mortality at 336 h [2, 10] [%] | Mortality rate ([3]; vehicle + VCR 2.4 mg/kg i.v.) | Mortality rate ([3]; vehicle + VCR 2.6 mg/kg i.v.) | Mortality rate, No. [3, 9] | Mortality rate, No. [3, 10] | Mean tumor weight [4] | Mean tumor weight [5] | Mean survival time ([6]; L1210, host BDF1, VCR 1,0 mg/kg i.p. days 1-3) | average survival time ([6]; L1210, Vincristine alone) [days] | type of VCR-induced neuropathy [7] | cell growth and contact inhibition [8] |
| --- | --- | --- | --- | --- | --- | --- | --- | --- | --- | --- | --- | --- | --- |
| CC[C@]1(O)C[C@H]2CN(CCc3c([nH]c4ccccc34)[C@@](C(=O)OC)(c3cc4c(cc3OC)N(C=O)[C@H]3[C@@](O)(C(=O)OC)[C@H](OC(C)=O)[C@]5(CC)C=CCN6CC[C@]43[C@@H]65)C2)C1 [Vincristine] | 2/8 | 38 | 60 | 7/10 | 5/10 | 19/50 | 30/50 | 0,64 g | 1,46 g | 7,8 gg. | 7.8 | dying-back type | – |
| II^3 NeuAcGgOse4 Cer [GM1] | – | – | – | – | – | – | – | – | – | – | – | – | inhibits cell growth and induces contact inhibition |
